BindingDB's records for patent US11827644 (Suzhou Genhouse Pharmaceutical, 2023)

Molecular target: T1, Tyrosine-protein phosphatase non-receptor type 11 (Homo sapiens, UniProt Q06124)
T1 sequence (Q06124 whole entry): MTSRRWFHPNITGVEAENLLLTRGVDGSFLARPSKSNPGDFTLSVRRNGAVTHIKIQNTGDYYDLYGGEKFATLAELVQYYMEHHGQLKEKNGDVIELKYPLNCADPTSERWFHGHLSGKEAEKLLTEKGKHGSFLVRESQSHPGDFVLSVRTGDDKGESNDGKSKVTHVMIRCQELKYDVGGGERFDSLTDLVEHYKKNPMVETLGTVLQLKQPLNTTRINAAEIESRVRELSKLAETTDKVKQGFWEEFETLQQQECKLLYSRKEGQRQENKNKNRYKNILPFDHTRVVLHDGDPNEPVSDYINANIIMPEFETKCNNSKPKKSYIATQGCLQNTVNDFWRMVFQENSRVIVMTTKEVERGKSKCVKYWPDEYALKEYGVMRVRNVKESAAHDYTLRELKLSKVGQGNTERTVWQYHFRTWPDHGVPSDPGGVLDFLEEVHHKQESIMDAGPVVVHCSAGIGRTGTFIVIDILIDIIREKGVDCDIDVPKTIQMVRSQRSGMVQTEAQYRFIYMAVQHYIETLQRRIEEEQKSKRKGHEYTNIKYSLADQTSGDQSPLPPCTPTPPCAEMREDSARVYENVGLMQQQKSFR
Assay: SHP2 Allosteric Inhibition Assay
Procedure: The phosphatase reaction was conducted in 384-well black polystyrene plates (Corning, Cat #3575) with flat bottom, low edge and non-binding surface at room temperature and 25 μl final volume of the following buffer condition: 60 mM HEPES, pH 7.2, 75 mM NaCl, 75 mM KCl, 1 mM EDTA, 0.05% P-20, 5 mM DTT.The following experiments were conducted to monitor the SHP2 inhibition by the compounds (at concentrations of 0.0003-100 μM) in this invention:Wherein, incubate 0.5 nM SHP2 with 0.5 μM peptide IRS1_pY1172 (dPEG8) pY1222 (sequence: H2N-LN (pY) IDLDLV (dPEG8) LST (pY) ASINFQK-amide) (SEQ ID NO: 1) (WO2016/203406A1). After incubation at 25° C. for 30-60 minutes, the alternative substrate DiFMUP (Invitrogen, cat #D6567) was added to the reaction and incubated at 25° C. for 30 minutes. The reaction was then […] by adding 5 μL of a 160 μM bpV (Phen) solution (Enzo Life Sciences cat #ALX-270-204). The fluorescence signal was monitored using a microplate reader (VARIOSKAN LUX, Thermo) with excitation and emission wavelengths of 340 nm and 450 nm, respectively. The inhibitory dose-response curve is analyzed using a standardized IC50 regression curve based on control-based normalization.

C[C@@H]1OCC2(CCN(c3cnc(Sc4cccc(-c5cscn5)c4Cl)cn3)CC2)[C@@H]1N [US11827644, Example 33]
IC50: 2.62 nM
